Data reported in patent publication US20060110456A1, “Method for biocidal and/or biostatic treatment and compositions therefor” (NATIONAL UNIVERSITY OF SINGAPORE, priority 2004, published 2006).
“Also recorded” adds a separate entry of the source. Structures can show the parent of a compound that is named as a salt. Where two headings read alike, the source gives them in different places.

How the values were obtained:
[1] = system: marine bacteria (26 strains); assay: Disk inhibition assay; type: cell-based, marine bacteria isolated from Singapore fouling communities; details: for zone of inhibition at 25 µg/disc: 25 μg per disc; for zone of inhibition at 50 µg/disc: 50 μg per disc
Experimental: Preparation of Drugs onto Disks for Assay
The non-antibiotic pharmaceuticals of Table 1 were prepared in the following way. A tablet with a known amount of active ingredient (as stated in the product information) was ground in a mortar and pestle and suspended in sterile deionized water to a concentration of 2 mg ml^−1. These samples were sonicated for at least 1 min. […] The two halves of the capsule were separated and the powder released straight into a bottle and suitable amount of water added to make a concentration of 2 mg ml^−1.
As a comparison to the pharmaceuticals, to determine the susceptibility of the bacterial isolates to conventional antibiotics, commercially available antibiotic discs were used. Antibiotic discs (Oxoid® CT series) containing Ampicillin [Amp] (2 and 10 μg), Erythromycin [Ery] (5 and 15 μg), Streptomycin [Str] (10 and 25 μg) and Tetracycline [Tet] (5 and 30 μg) were placed on lawns of the bacterial strains inoculated as described below.
Sterile swabs dipped into the cultures were used to inoculate Marine Agar plates with a bacterial lawn by smearing the culture over the surface. After inoculating the plates, discs with antibiotics, pharmaceuticals or control blanks were placed on each plate. Each concentration of antibiotic or pharmaceutical was tested with three replicates on three separate occasions. After the disks were placed on the agar surface, plates were incubated overnight in the dark at 30° C. After incubation, plates were examined for zones of inhibition or clearing around control and treated disks. The diameter of any zone of clearing or inhibition was measured using Vernier calipers.
The assay was repeated three times with three replicates for each concentration used, each time.

[2] = system: biofilm bacteria (strains 4, 9, 14, 20, 27, 28); assay: Effect of pharmaceuticals on adhesion of bacteria to plastic / biofilm formation on NTC and TC plates; type: cell-based, marine bacteria isolated from Singapore fouling communities; details: for Effect on formation of bacterial biofilms on NTC and TC plates: 25 ug ml−1, NTC = untreated polystyrene, TC = tissue-culture treated, strains 4, 9, 14, 20, 27, 28; for Prevention of formation of biofilm: crude rank, best (1) to worst (8)
Experimental: Commercial forms of pharmaceuticals were used as previously described. […] These samples were sonicated for at least 1 min and these fine suspensions were used as initial stock solutions.
For studies of bacterial adhesion, the pharmaceuticals were first sterilized by soaking in absolute alcohol (Merck) for half an hour. Ethanol was removed by air-drying with air passed through 0.25 μm pore size syringe filter (Sartorius, Germany). Stock solutions were concentrations of 100 μg ml−1 in SDI.
The effect of pharmaceuticals on bacterial adhesion was analyzed using a modified microplate method adapted from Shea and Williamson (1990). This method employs a combination of staining attached bacteria with crystal violet, releasing the stain with sodium desoxycholate, and measuring the resulting absorbance of the crystal violet.
Detailed results for six selected strains are presented here: strains 4, 9, 14, 20, 27, 28. The bacterial strains were grown in Marine Broth (Pronadisa, Spain) overnight, in the dark, at 28° C. on a rotary shaker (150 rpm) in 5 ml centrifuge tubes (Falcon). Cells were harvested by centrifugation (1500×g, 10 min) and resuspended in sterile seawater (SSW). SSW was prepared by filtering seawater through a 0.2 μm pore size filter (Sartorius) followed by autoclaving. The cells were centrifuged and resuspended once more in SSW. The concentration of resuspended cells was adjusted to A600=1.0 using a spectrophotometer (Beckman DU530, USA).
Flat bottom 96 well polystyrene (hydrophobic, Falcon 351172) (=NTC) and tissue-culture treated polystyrene (hydrophilic, Falcon 353072) (=TC) microplates were used in the analyses. Each test was performed in triplicate. Two sets of experiments were conducted. […] For the control and blank wells, 25 ul of SDI were added. For wells containing pharmaceuticals, 25 ul of the respective pharmaceutical at a concentration of 100 ug ml−1 were added. This was immediately followed by the addition of 75 ul of bacterial suspension. To blanks were added 75 ul of SSW.
The bacterial cells in suspension were allowed to attach for 2 h at 28° C. Unattached cells were removed by aspiration using a plate washer (Tecan, Austria) and wells were rinsed three times with 200 ul of SSW each time. The attached cells were stained with 200 ul of crystal violet solution (0.1% w/v in deionized water) in each well for 5 min. After removing the stain using the plate washer, the wells were rinsed twice with 300 ul of SDI each time. Sodium desoxycholate (200 ul) solution (2% w/v in deionized water) was added to each well to extract the crystal violet from the attached stained cells for 10 min. The absorbance of the crystal violet was read at 590 nm using a microplate reader (Sunrise, Tecan, Austria).
Results of the adhesion assay were obtained by the difference in absorbance readings between wells containing bacterial cells and the mean of absorbance of those containing the SSW only. The effect of the pharmaceuticals on bacterial adhesion was determined by the examining the differences in absorbance between the wells containing the pharmaceuticals+bacteria and the bacteria. The significance was compared using T-test.

Bugula neritina larvae = assay: Bioassay against bryozoan larvae; type: in vivo; details: crude rank, best (1) to worst (8)
Experimental: Bugula neritina (Phylum Bryozoa, Class Gymnolaemata, Order Cheilostomatida) is a cosmopolitan species of bryozoan, commonly found in most marine fouling communities. The larvae are brooded in ovicells found on the stem of the colonies. When released, the larva will settle quickly on most surfaces, within a few minutes. At 24° C., the settled larvae forms the one-cell ancestrula, and after 48 hours, the lophophore has developed and extended for feeding.
Adult colonies of Bugula neritina were collected from fouling communities growing on the submerged pontoons on a floating fish farm located off Changi, Singapore. Adult animals were maintained in the open-circulation aquarium at St John's island marine laboratory, Singapore. The adults were kept in total darkness for 24 hours. On exposure to light, larvae were released after half an hour. […] Because the larvae will settle quickly, larvae were pipetted directly into test wells in 1 ml of seawater using a graduated glass pipette.
4 replicates were done for each treatment. After 24 hours, larvae were scored as settled, swimming or dead/deformed. The assay plates were usually kept for another 24 hours and checked again, to ascertain that the settled larvae had developed into viable colonies with lophophores. Two trials were repeated for each compound.
Bioassays were carried out using the method described above, in July 2003 during the peak spawning season for Bugula.

[3] = crude rank, best (1) to worst (8)

Compound: CN1CCN(C(c2ccccc2)c2ccccc2)CC1 [CYZ, Cyclizine hydrochloride]
- Antibiotic activity against marine bacteria ([1]; 25 or 50 μg per disc, in words): did not have any appreciable antibiotic activity against marine bacteria
- Antibiotic activity against marine bacteria [1, 3]: 8
- Effect on formation of bacterial biofilms on NTC and TC plates ([2]; hydrochloride): significantly more bacteria adhesion for strain 9; also recorded: No significant reduction in biofilm formation
- Prevention of formation of biofilm [2]: 8
- Prevention of settlement of Bugula larvae (Bugula neritina larvae): 5

Compound: CCCCCCCCCC(=O)OC1(c2ccc(Cl)cc2)CCN(CCCC(=O)c2ccc(F)cc2)CC1 [HDL, haloperidol decanoate]
- Antibiotic activity against marine bacteria ([1]; 25 or 50 μg per disc, in words): did not have any appreciable antibiotic activity against marine bacteria
- Antibiotic activity against marine bacteria [1, 3]: 8
- Effect on formation of bacterial biofilms on NTC and TC plates [2]: no significant difference from control; also recorded: On TC, there was a slight reduction in biofilm formation for strain 28 (p<0.1); also recorded: No significant reduction in biofilm formation was observed for most strains, except for strain 28, where there appears to be a slight effect (0.05<p<0.1)
- Prevention of formation of biofilm [2]: 6
- Prevention of settlement of Bugula larvae (Bugula neritina larvae): 4

Compound: CN(C)C(=O)C(CCN1CCC(O)(c2ccc(Cl)cc2)CC1)(c1ccccc1)c1ccccc1 [IMD, Loperamide hydrochloride]
- Antibiotic activity against marine bacteria ([1]; 25 or 50 μg per disc, in words): did not have any appreciable antibiotic activity against marine bacteria
- Antibiotic activity against marine bacteria [1, 3]: 8
- Effect on formation of bacterial biofilms on NTC and TC plates ([2]; hydrochloride): On NTC, there was a slight reduction in strain 28; also recorded: reduction of biofilm growth in strain 28 on NTC but not on TC
- Prevention of formation of biofilm [2]: 7
- Prevention of settlement of Bugula larvae (Bugula neritina larvae): 7

Compound: CN1CCN(CCCN2c3ccccc3Sc3ccc(Cl)cc32)CC1 [PCZ, prochlorperazine maleate]
- Antibiotic activity against marine bacteria [1]: strongest activity
- Antibiotic activity against marine bacteria [1, 3]: 3
- zone of inhibition at 25 µg/disc ([1]; strain 1 (Rhodovulum)): < 5 mm
- zone of inhibition at 50 µg/disc ([1]; strain 1 (Rhodovulum)): < 5 mm
- zone of inhibition at 25 µg/disc ([1]; strain 2 (Erythrobacter)): < 5 mm
- zone of inhibition at 50 µg/disc ([1]; strain 2 (Erythrobacter)): < 5 mm
- zone of inhibition at 25 µg/disc ([1]; strain 3 (Erythrobacter)): 10 to 19 mm
- zone of inhibition at 50 µg/disc ([1]; strain 3 (Erythrobacter)): 10 to 19 mm
- zone of inhibition at 25 µg/disc ([1]; strain 4 (Bacillus)): 10 to 19 mm
- zone of inhibition at 50 µg/disc ([1]; strain 4 (Bacillus)): 10 to 19 mm
- zone of inhibition at 25 µg/disc ([1]; strain 6 (Vibrio)): < 5 mm
- zone of inhibition at 50 µg/disc ([1]; strain 6 (Vibrio)): 5 to 9 mm
- zone of inhibition at 25 µg/disc ([1]; strain 7 (Vibrio)): < 5 mm
- zone of inhibition at 50 µg/disc ([1]; strain 7 (Vibrio)): < 5 mm
- zone of inhibition at 25 µg/disc ([1]; strain 8 (Bacillus)): 10 to 19 mm
- zone of inhibition at 50 µg/disc ([1]; strain 8 (Bacillus)): 10 to 19 mm
- zone of inhibition at 25 µg/disc ([1]; strain 9 (Bacillus)): 10 to 19 mm
- zone of inhibition at 50 µg/disc ([1]; strain 9 (Bacillus)): 10 to 19 mm
- zone of inhibition at 25 µg/disc ([1]; strain 10 (Halobacillus)): 10 to 19 mm
- zone of inhibition at 50 µg/disc ([1]; strain 10 (Halobacillus)): 10 to 19 mm
- zone of inhibition at 25 µg/disc ([1]; strain 11 (Pseudomonas)): 10 to 19 mm
- zone of inhibition at 50 µg/disc ([1]; strain 11 (Pseudomonas)): 10 to 19 mm
- zone of inhibition at 25 µg/disc ([1]; strain 12 (Gordonia)): 10 to 19 mm
- zone of inhibition at 50 µg/disc ([1]; strain 12 (Gordonia)): 20 to 29 mm
- zone of inhibition at 25 µg/disc ([1]; strain 13 (Bacillus)): 10 to 19 mm
- zone of inhibition at 50 µg/disc ([1]; strain 13 (Bacillus)): 10 to 19 mm
- zone of inhibition at 25 µg/disc ([1]; strain 14 (Vibrio)): < 5 mm
- zone of inhibition at 50 µg/disc ([1]; strain 14 (Vibrio)): < 5 mm
- zone of inhibition at 25 µg/disc ([1]; strain 16 (Pseudoalteromonas)): < 5 mm
- zone of inhibition at 50 µg/disc ([1]; strain 16 (Pseudoalteromonas)): < 5 mm
- zone of inhibition at 25 µg/disc ([1]; strain 17 (Gordonia)): 10 to 19 mm
- zone of inhibition at 50 µg/disc ([1]; strain 17 (Gordonia)): 20 to 29 mm
- zone of inhibition at 25 µg/disc ([1]; strain 18 (Microbacterium)): 10 to 19 mm
- zone of inhibition at 50 µg/disc ([1]; strain 18 (Microbacterium)): 20 to 29 mm
- zone of inhibition at 25 µg/disc ([1]; strain 19 (Erythrobacter)): 10 to 19 mm
- zone of inhibition at 50 µg/disc ([1]; strain 19 (Erythrobacter)): 10 to 19 mm
- zone of inhibition at 25 µg/disc ([1]; strain 20): 10 to 19 mm
- zone of inhibition at 50 µg/disc ([1]; strain 20): 10 to 19 mm
- zone of inhibition at 25 µg/disc ([1]; strain 21): < 5 mm
- zone of inhibition at 50 µg/disc ([1]; strain 21): 10 to 19 mm
- zone of inhibition at 25 µg/disc ([1]; strain 22): 10 to 19 mm
- zone of inhibition at 50 µg/disc ([1]; strain 22): 10 to 19 mm
- zone of inhibition at 25 µg/disc ([1]; strain 24): 10 to 19 mm
- zone of inhibition at 50 µg/disc ([1]; strain 24): 10 to 19 mm
- zone of inhibition at 25 µg/disc ([1]; strain 26): 5 to 9 mm
- zone of inhibition at 50 µg/disc ([1]; strain 26): 10 to 19 mm
- zone of inhibition at 25 µg/disc ([1]; strain 27): 5 to 9 mm
- zone of inhibition at 50 µg/disc ([1]; strain 27): 10 to 19 mm
- zone of inhibition at 25 µg/disc ([1]; strain 28): 10 to 19 mm
- zone of inhibition at 50 µg/disc ([1]; strain 28): 10 to 19 mm
- zone of inhibition at 25 µg/disc ([1]; strain 29): 10 to 19 mm
- zone of inhibition at 50 µg/disc ([1]; strain 29): 10 to 19 mm
- zone of inhibition at 25 µg/disc ([1]; strain 30): 10 to 19 mm
- zone of inhibition at 50 µg/disc ([1]; strain 30): 10 to 19 mm
- Effect on formation of bacterial biofilms on NTC and TC plates [2]: reduced biofilm formation only for strains 4 and 27; also recorded: active against strain 4, and a slight effect on strain 27
- Prevention of formation of biofilm [2]: 4
- Prevention of settlement of Bugula larvae (Bugula neritina larvae): 2

Compound: CN[C@H]1CC[C@@H](c2ccc(Cl)c(Cl)c2)c2ccccc21.Cl [ZLT, sertraline hydrochloride]
- Effect on formation of bacterial biofilms on NTC and TC plates ([2]; hydrochloride): Biofilm formation was reduced for most strains except strain 14; also recorded: reduction of biofilm growth for most strains (except strain 14) on NTC, but only for strain 28 on TC
- Prevention of formation of biofilm [2]: 3
- Prevention of settlement of Bugula larvae (Bugula neritina larvae): 1
